Source: patent US20220088024A1, “METHODS FOR TREATING CANCER USING TOZADENANT” (Biotie Therapies, Inc., priority 2018, published 2022)
“And” between values parts separate entries of the source, which are not always exact repeats. Equal entries are not always repeated.

Key:
[1] = system: AT-3ova CD73+ tumour (mouse breast carcinoma cell line AT-3); assay: Example 1: anti-tumor responses of SYN-115 in the AT-3ova CD73+ tumour cell mouse model (tumor area); format: in vivo, C57/BL6 mice
Method: The C57BL/6 mouse breast carcinoma cell line AT-3 was obtained from Dr. Trina Stewart (Griffith University, Nathan, QLD, Australia. Tumor cell lines were transduced to express chicken ovalbumin peptide and CD73 as previously described (1, 2, 3). Tumor cells are periodically verified to be Mycoplasma negative by the Victorian Infectious Diseases References Lab (Melbourne, VIC, Australia) by PCR analysis. Tumor cells were grown in DMEM supplemented with 10% FCS, GlutaMAX, and penicillin/streptomycin. 5×10^5 cells were resuspended in PBS and injected s.c. into C57/BL6 mice in a 100 μL volume. At day 14 tumors were measured and mice were randomized into distinct treatment groups to ensure that each group had tumors of similar size at the onset of treatment. Mice were treated i.p. at days 14, 18, 22, and 26 with either isotype control (2A3; 200 μg/mouse) or anti-PD-1 mAb (RMP1-14, 200 μg/mouse) and where indicated SYN-115 (Batch 71236AA002) at the indicated dose or vehicle control once-daily via oral gavage on days 14 to 29. To calculate a dose of SYN-115, mouse weight was estimated to be 20 g per mouse. Therefore, 100 mg/kg=2 mg per mouse in 200 μL, which is equivalent to 10 mg/ml. […] Tumor sizes were determined by width * length and mice were culled when tumors reached the ethical limit of 150 mm^2.

[2] = Example 13: calculation of predicted human dose from mouse and human PK; details: for AUC: mouse, plasma
Method: Using the PK data above in mice and humans, a human efficacious dose was estimated by identifying a dose in humans that would result in plasma exposures similar to the efficacious dose in the oncology models in mice. The 100 mg/kg/day dose studied for PK in mice and the 180 mg dose studied for PK in humans were the relevant doses used in this estimation.
This predicted human efficacious dose for tozadenant for treating cancer based on the measured PK data can be contrasted to the predicted dose that would be calculated by the less informed but standard approach of using body surface area comparisons between mice and humans, whereby the equivalent dose in humans would be calculated by dividing the dose in mice by 12.3 (see, e.g., Nair A B, Jacob S. A simple practice guide for dose conversion between animals and human. J Basic Clin Pharma 2016;7:27-31). This approach would result in a predicted efficacious dose of 0.24 mg/kg in humans, which is equivalent to approximately 17 mg in a typical 70 kg human. Thus, this prediction using the standard method results in a targeted human dose more than an order of magnitude higher than the one informed by PK.

[3] = Example 12: pharmacokinetics of tozadenant tablets (180 mg single dose, bioequivalence study) in humans; format: in vivo; details: both sexes, plasma, oral, 180 mg (approximately 2.6 mg/kg in 70 kg human)
Method: In a clinical study, tozadenant was administered PO as tablets under fasted conditions, as a single administration at 180 mg. This was an open-label, single-center, randomized, 2-treatment, 2-way crossover bioequivalence study testing 2 different tablet formulation of tozadenant. A modified formulation of tozadenant has been developed for use in Phase 3 studies. The modified formulation for use in Phase 3 studies contains four fewer excipients compared to the Phase 2 formulation. This study, therefore, evaluated the bioequivalence of the Phase 3 formulation and the Phase 2 formulation.
Thirty-six (36) healthy adult, non-tobacco using male and female subjects were enrolled to ensure completion by 32 subjects. […]
The following PK parameters were calculated from the individual plasma tozadenant concentration-time data. All PK parameters were calculated using Phoenix WinNonlin® Version 6.3. […] For the calculation of the PK parameters, concentration values below the limit of quantitation (BLQ) were treated as zero before the first quantifiable concentration and as missing thereafter. […]
AUC and Cmax parameters were not to be calculated for subjects with only 2 or less consecutive time points with detectable concentrations. […]
Tozadenant was quantitated using a validated liquid chromatography/tandem mass spectrometry method with a lower limit of quantitation (LLOQ) of 0.00500 μg/mL.

- AUC ([2]; oral, mice, 3 mg/kg efficacious dose, read-out: Point estimate AUC (linear extrapolation)): ~106 ng·h/mL
- AUC ([2]; 2 mg/kg dose in mice, read-out: Target AUC in humans): 71 ng·h/mL
- Predicted human dose achieving target AUC ([2]; target AUC of 71 hr*ng/mL (2 mg/kg mouse dose)): approximately 0.6 mg
- Predicted human dose achieving target AUC ([2]; target AUC of 106 hr*ng/mL (3 mg/kg mouse dose)): approximately 0.9 mg
- AUC [3]: 20600 ng·h/mL
Compound: COc1ccc(N2CCOCC2)c2sc(NC(=O)N3CCC(C)(O)CC3)nc12 [SYN-115, 4-hydroxy-4-methyl-piperidine-1-carboxylic acid (4-methoxy-7-morpholin-4-yl-benzothiazol-2-yl)-amide]
- Tumor size (width * length) ([1]; 2A3+SYN-115 (100 mg/kg), Day 6): 23.5 mm^2 and 27.03 mm^2 and 30.74 mm^2 and 17.5 mm^2 and 33.6 mm^2
- Tumor size (width * length) ([1]; Anti-PD-1 (200 ug)+SYN-115 (100 mg/kg), Day 0): 13.76 mm^2 and 14 mm^2 and 17.2 mm^2 and 17.49 mm^2 and 26.22 mm^2 and 26.4 mm^2
